The subject of data set [1] is primary bone marrow dendritic cells (BMDC). Nature of the data set: dexamethasone effect on surface markers of bone marrow dendritic cells (FACS). The format is cell-based, mouse. As for the experimental part:
Flow cytometry was conducted according to standard protocols. Cells were harvested, washed, and resuspended to a final cell concentration of 1-5 million cells/ml in ice cold phosphate buffered saline (PBS) with 10% fetal bovine serum (FBS) and 1% sodium azide. Anti-mouse antibodies including anti-CD11c, MHC II, CD80, CD86, and OVA 257-264 bound to H-2Kb were then aliquotted according to the manufacturer's recommended dilutions (Ebioscience). During staining, cells were incubated for 20 minutes at room temperature and then 20 minutes on ice. The cells were then washed and kept on ice until analysis. Some samples were fixed in 1% paraformaldehyde (PFA) for later flow cytometric studies. Flow cytometry was conducted on the BD LSR II or the BD Fortessa. Analysis was done using Flowjo (Tree Star Inc.).
The listed concentrations of dexamethasone were added on day 6 and day 8. For the lipopolysaccharide (LPS) condition, LPS was added to a concentration of 50 ng/ml on day 9. […] “LPS” samples had LPS, but no dexamethasone.
For these studies, dexamethasone was added on day 6 and day 8. LPS was added to a concentration of 50 ng/ml on day 9. […] “LPS” samples had LPS, but no dexamethasone.

For data set [2], the system named is BMDC. Nature of the data set: IL-12p70 elaboration from BMDC (ELISA). The following applies: 100 nM, LPS 50 ng/ml. Background: An ELISA detects its analyte on a solid surface through an enzyme-linked reagent.
A further data set concerns Jaws II cells. Nature of the data set: transwell migration of Jaws II DC. The format is cell-based. The following applies: 10^−6 or 10^−7 M dexamethasone.
In data set [3] the test system is BMDC. Nature of the data set: MHC II and co-stimulatory molecule surface presentation on BMDC after LPS. Particulars: 100 nM compound, next day 50 ng/ml LPS; mean ± SD. The format is cell-based, mouse. As for the experimental part: Day 9 BMDC were harvested from 100 mm diameter plates and seeded into 6 wells of a tissue culture plate in R10 media containing 100 nM dexamethasone or dexamethasone-[…] […] The BD LSR Fortessa was used to analyze the cells. Histograms were created using Flowjo (Tree Star Inc.) and statistical analysis was done using InStat (GraphPad Software).

The test system of data set [4] is CD4+ T cells from OT-II mice. Nature of the data set: CD4 T cell proliferation with peptide-MPS stimulated BMDCs. The format is cell-based. Particulars: compared to peptide stimulation only. An excerpt:
FIG. 54A-C are a set of graphs showing the effect of peptide-MPS conjugates on CD4 T cell proliferation, as evaluated in vitro. BMDCs were stimulated with […] (peptide) (SEQ ID NO: 19), […] (SEQ ID NO: 19) conjugated to MPS through SMCC (SMCC), and […] BMDCs were then washed thoroughly and co-cultured with CD4^+ T cells from OT-II mice. OT-II mice are enriched for CD4^+ T cells recognizing the […] (SEQ ID NO: 20) peptide.

Another data set deals with CD11c(+)CD86(+) DCs. As to the kind of experiment: in vivo DC recruitment to subcutaneous GM-CSF loaded polymers. Set-up: species or system C57BL/6J mice. An excerpt: (§1) FIGS. 4A-F are graphs and images showing data on the in vivo control of DC recruitment and programming. […] Numbers in FACS plots indicate the percentage of the cell population positive for both markers. (4D) is the percentage of total cells that were positive for the DC markers CD11c and CD86, in blank (-∘-) and GM-CSF (-•-) loaded polymers as a function of time post implantation. (4E) The total number of DCs isolated from blank (-∘-) and GM-CSF (-•-) loaded polymers as a function of time post implantation. (4F) The fractional increase in CD11c(+)CD86(+) DCs isolated from polymers at day-14 after implantation in response to doses of 1000, 3000 and 7000 ng of GM-CSF as compared to the control. Scale bar—500 μm. Values in 4A, 4D, 4E, and 4F represent mean and standard deviation (n=4 or 5); * P<0.05; ** P<0.01.
(§2) The polymer delivery vehicle presents GM-CSF in a defined spatiotemporal manner in vivo, following introduction into the tissue of interest. Exemplary vehicle quickly release approximately 60% of the bioactive GM-CSF load within the first 5 days, followed by slow and sustained release of bioactive GM-CSF over the next 10 days (FIG. 4A), to allow diffusion of the factor through the surrounding tissue and effectively recruit resident DCs. Polymers were loaded with 3 μg of GM-CSF and implanted into the dorsal subcutaneous site of C57BL/6J mice. […]

In the next data set the test system is JAWSII DCs. Nature of the data set: GM-CSF effects on JAWSII DC recruitment, proliferation, emigration and activation in vitro. The format is cell-based. As for the experimental part:
FIGS. 3A-C are graphs and FIG. 3D is a set of images showing data related to the concentration dependent effects of GM-CSF on DC proliferation, recruitment, activation and emigration in vitro. […] Migration counts measured at 12 hours. (3B) is the effects of GM-CSF concentration on the proliferation of JAWSII DCs. 0 (white bar), 50 (grey bar), and 500 ng/ml (black bar) of GM-CSF. […] Migration counts taken at 6 hours. (3D) are representative photomicrographs of TNF-α and LPS stimulated JAWSII DCs cultured in 5-50 or 500 ng/ml GM-CSF and stained for the activation markers MHCII and CCR7. Scale bar in (3D)—20 μm. Values in (3A-3C) represent mean and standard deviation (n=4); * P<0.05; ** P<0.01
High concentrations (>100 ng/ml) of GM-CSF, however, inhibited DC migration toward the LN-derived chemokine CCL19 (FIG. 3C).

Data set [5] deals with mononuclear cells isolated from the bone marrow. Nature of the data set: DC induced in vitro from bone marrow cells with GM-CSF with or without TSLP, VIP or TGF-β. The format is cell-based, C57BL/6 mice. Particulars: for CD11c+/CD86+ in total BM cells: 7 day incubation; for expression of IL-6 and IL-12: GM-CSF in the presence of factor, bacterial stimulation, compared to GM-CSF alone. The source says:
The surface phenotypes of CD11c+DC in the BM culture were monitored by flow cytometry and the proportionality of each phenotype is expressed as a percent (%) of the total mononuclear cells (MNC) (FIG. 5, Table 1).
The present invention provides for a material-based local application of GM-CSF with appropriate DC influencing factors that leads to tolerogenic DCs (tDCs), and subsequent enrichment of iTreg cells. Candidate biofactors include thymic stromal lymphopoietin (TSLP), vasoactive intestinal peptide (VIP), and transforming growth factor-beta (TGF-β). Screening is based on the induced DC's anti-inflammatory properties. […] Overall, these observations that the combination of GM-CSF with TSLP efficiently induces DC with an anti-inflammatory phenotype.

Data set [6] is described as follows: release profile of GM-CSF from polymer delivery vehicle. The format is physicochemical. The following applies: within the first 5 days.
Description: as §1, §2

Data set [7] relates to bone marrow derived murine dendritic cells. As to the kind of experiment: chemokinesis of bone marrow dendritic cells toward alginate gels, time-lapse imaging. The format is cell-based. The following applies: alginate gel with GM-CSF, cells followed for 8 hours. As for the experimental part:
GM-CSF enhanced chemokinesis of bone marrow dendritic cells in vitro. Alginate gels with or without GM-CSF ([…]) were placed in a petri dish and surrounded with collagen containing bone marrow derived murine dendritic cells (FIG. 14A). The cells were followed for 8 hours using time-lapse imaging. The velocity of the cells was calculated from initial and final position values and is plotted in FIGS. 14B and C in μm/min. Chemotaxis toward the alginate is given as the positive x coordinate (positive x is directed radially inward). Each dot reflects the velocity of 1 cell, and each plot is representative of three experiments. The average migration speed of cells in the presence of GM-CSF was 3.1 μm/min compared to 1.1 μm/min in the absence of GM-CSF.

The subject of data set [8] is B3Z T cell line. As to the kind of experiment: B3Z cell: DC co-culture, X-gal assay. The format is cell-based. The protocol:
(§3) 15 hours later, the cells were fixed and stained with X-gal (Imgenix) according to the manufacturer's instructions. The cells were photographed at 10× magnification using a standard bright field microscope. A similar protocol was followed for the chlorophenol […] staining assay (Imgenix), except that after 15 hours, the cells were washed and lysed in a chlorophenol red-β-D-galactopyranoside staining buffer. After a 4 hour incubation at 37° C., the absorbance at 590 nm was obtained.
Following a 15 hour co-culture, the cells were fixed, stained with X-gal, and imaged. The images were all obtained at 10× magnification and represent a typical distribution of cells (FIG. 29).

Data set [9] deals with B3Z T cell line. As to the kind of experiment: B3Z cell: DC co-culture, CPRG assay. Particulars: antigen concentrations greater than 10 nM. The format is cell-based. As for the experimental part: as §3
The cells were then lysed and treated with the β-galactosidase substrate, chlorophenol red-β-D-galactopyranoside (CPRG). After 4 hours of incubation, the absorbance at 590 nm was obtained. Staining was due to β a-galactosidase expression driven by elements of the IL-2 promoter.

In data set [10] the test system is bone marrow derived dendritic cells (BMDCs). As to the kind of experiment: antigen presentation of […]-MPS conjugate by BMDCs (flow cytometry). The format is cell-based. Particulars: 18 hours, versus peptide adsorbed to MPS. An excerpt:
FIG. 53 is a pair of graphs evaluating the antigen presentation of […] (SEQ ID NO: 18)-MPS conjugate. […] Percentage of BMDCs presenting the peptide was quantified using flow cytometry.
A general note: A flow cytometer gives signals particle by particle.

Where no end group is shown, it is not given here. Where only a bound is given, the exact number is not on record here.

For `C[C@@H]1C[C@H]2[C@@H]3CCC4=CC(=O)C=C[C@]4(C)[C@@]3(F)[C@@H](O)C[C@]2(C)[C@@]1(O)C(=O)CO` [dexamethasone], the “dexamethasone concentrations with MHC II, CD80, CD86 staining reduced compared to LPS positive control” value in data set [1] (LPS treated) is reported as “greater than or equal to 10^−8 M”. Also, the “dexamethasone concentrations that reduced CD11c expression” value in data set [1] (immature BMDC cultures) is reported as ≥ 10^−8 M. In addition, the “dexamethasone concentration at which inhibition of CD11c+ staining begins” value in [1] (mature DC treated with LPS 50 ng/ml) was “around 10^−8 M”. In addition, the “reduction of IL-12 elaboration from BMDC, factor” value in the data set on BMDC [2] is given as ~4. Also, in the data set with Jaws II cells, the “number of cells that migrated to CCL20 relative to control” value is “approximately 1.8 fold”. Also, in the data set with BMDC [3], the “MFI CD80” value is given as 3100 ± 100^δ, the “MFI CD86” value is listed as 2050 ± 5^β and the “MFI MHC II” value was 540 ± 20^α.

In the case of “CISQAVHAAHAEINEAGR (SEQ ID NO: 19) conjugated to MPS through SMCC: ovalbumin CD4 epitope conjugated to MPS through stable SMCC linker (also: conjugated to MPS via SMCC linker)”, the “CD4 T cell proliferation” value in data set [4] was “significantly higher T cell proliferation”.

“CISQAVHAAHAEINEAGR (SEQ ID NO: 19) conjugated to MPS through SPDP: ovalbumin CD4 epitope conjugated to MPS through reducible SPDP linker (also: conjugated to MPS via SPDP linker)”: in data set [4], the “CD4 T cell proliferation” value was “significantly higher T cell proliferation”.

GM-CSF: the “CD11c(+)CD86(+) DCs by FACS” value with CD11c(+)CD86(+) DCs (3 μg GM-CSF loaded polymers) was “increased not just the total cell number, but also the percentage of infiltrating cells that were DCs”. Moreover, the “total cellular infiltration at the site” value in the data set with CD11c(+)CD86(+) DCs (3 μg GM-CSF, day-14, compared to control) is given as “significantly enhanced”. Besides, in the data set on JAWSII DCs (high concentrations of GM-CSF), the “DC activation via TNF-α and LPS stimulation (MHCII, CCR7 expression)” value was “suppressed DC activation”. Further, the “DC recruitment and proliferation” value with JAWSII DCs (in vitro) was “enhanced DC recruitment and proliferation in a dose-dependent manner”. The “GM-CSF concentrations that inhibited DC migration toward CCL19” value in the data set with JAWSII DCs (transwell) was > 100 ng/mL. The “CD11c+/CD86+ in total BM cells” value in data set [5] is given as 14.7%. For the same compound, in [6], the “bioactive GM-CSF load released” value is listed as “approximately 60%”. Further, the “average migration speed of cells” value in data set [7] is on record as 3.1 μm/min.

For SIINFEKL (Exemplary ovalbumin peptide.), the entries for the “X-gal staining of B3Z cells” value in the data set on B3Z T cell line [8] (0.05 μM peptide) and with B3Z T cell line [8] (1.0 μM peptide) were “many positive cells” and “numerous positive cells”, respectively. The “CPRG hydrolysis versus dexamethasone-SIINFEKL groups” value with B3Z T cell line [9] was “greater CPRG hydrolysis”.

Regarding “SPDP CSIINFEKL (SEQ ID NO: 18)-MPS: ovalbumin CD8 epitope CSIINFEKL conjugated to MPS through reducible SPDP linker (also: SPDP linker to MPS)”, the “BMDCs presenting the peptide” value was “significantly better presented” in [10] (10 nM) and “comparable levels” in data set [10] (100 nM).

On to TGF-β, for which, in data set [5], the “CD11c+/CD86+ in total BM cells” value was found to be 10.5%; the “expression of IL-6 and IL-12” value was “diminished expression”.

Turning to TSLP: thymic stromal lymphopoietin, the “expression of IL-6 and IL-12” value in data set [5] is on record as “diminished expression”.

Consider “VIP: vasoactive intestinal peptide (HSDAVFTDNYTRLRKQMAVKKYLNSILN; ends and bridges not checked; UniProt P01282 125-152, looked up)”, for which the “expression of IL-6 and IL-12” value in [5] is recorded as “diminished expression”. Moreover, in [5] (GM-CSF plus factor (100 ng/ml), 7 days, bacterial challenge), the “IL-10 production by induced DC” value is listed as “did not up-regulate”.
